Measured values published in patent publication US20220153732A1, “PROTEIN SECRETION INHIBITORS” (KEZAR LIFE SCIENCES, priority 2019, published 2022).

Assays:
Assay type in all cases: cell-based
[1] = system: human multiple myeloma cell line NCI-H929; experiment: H929 Cell Viability Assay; conditions: 48 hr, NCI-H929 cells, Celltiter-Glo, read-out: 48 hr H929 Viability Celltiter-Glo: Mean EC50
Procedure: Plates were incubated at 37° C., 5% CO2 for 48 hours. After 48 hours, Celltiter-Glo® (Promega) was added to each well and luciferase signal was quantified using Tecan Infinite M1000 Pro for cell viability determination.
For chemical structures that include one or more stereoisomers, but are illustrated without indicating stereochemistry, the assay data refers to a mixture of stereoisomers.

[2] = system: PD1-ss+10aa/Gaussia Luciferase; experiment: Dox-Induced PD1-ss-Gluc Assay; conditions: 24 hr doxycycline induction, 293FRT/TO cells, Gaussia luciferase signal; read-out: 24 hr Dox Inducible PD1ssGluc 293FRT/TO: Mean IC50
Outline: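 Compounds, diluted in DMSO/media with doxycycline, were added to cells plated a day earlier and kept at 37° C under 5% CO2. The cells stably express a Gaussia luciferase construct fused to PD1-ss+10aa, induced via the T-REx system. Unassigned stereochemistry means mixture data.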

[3] = system: human multiple myeloma cell line U266B1; experiment: U266 Cell Viability Assay; conditions: U-266, 48 hr, U266B1 cells, Celltiter-Glo, read-out: 48 hr U266 Viability Celltiter-Glo: Mean EC50
Outline: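 Viability measured by CellTiter-Glo luciferase signal after 48 h compound exposure (37 °C, 5% CO2) of U266B1 cells in 384-well format. Where stereochemistry is not shown, data refer to the stereoisomer mixture.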

[4] = system: TNFα-FL/Gaussia Luciferase; experiment: Dox Induced TNFα-FL-Gluc Assay; conditions: 24 hr doxycycline induction, 293FRT/TO cells, Gaussia luciferase signal; read-out: 24 hr Dox Inducible TNFaFLGluc 293FRT/TO: Mean IC50
Outline: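 Compounds were added in doxycycline-containing DMSO/media to cells plated the previous day and incubated at 37° C under 5% CO2. These cells stably express a TNFα-FL/Gaussia luciferase cDNA whose expression is under T-REx (Dox-inducible) control, selected with Hygromycin and Blasticidin.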

[5] = system: IL-2-FL/Gaussia Luciferase; experiment: Dox Induced IL2-FL-Gluc Assay; conditions: 24 hr doxycycline induction, 293FRT/TO cells, Gaussia luciferase signal; read-out: 24 hr Dox Inducible IL2FLGIuc 293FRT/TO: Mean IC50
Outline: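 Compounds were added together with doxycycline in DMSO/media and incubated at 37° C., 5% CO2. The cells were a stably selected line carrying IL-2-FL/Gaussia luciferase under T-REx inducible control. Structures drawn without stereochemistry were tested as stereoisomer mixtures.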

[6] = system: HER3-ss+4aa/Gaussia Luciferase; experiment: Dox-Induced Her3-ss-Gluc Assay; conditions: 24 hr doxycycline induction, 293FRT/TO cells, Gaussia luciferase signal; read-out: 24 hr Dox Inducible Her3(ss + 4)Gluc 293FRT/TO: Mean IC50
Outline: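 Compounds, diluted in DMSO/media containing doxycycline, were incubated at 37° C., 5% CO2 with cells seeded one day earlier. The cells stably express HER3-ss+4aa/Gaussia luciferase under T-REx control. Where no stereochemistry is shown, data refer to the mixture of stereoisomers.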

| Compound | EC50 [1] | IC50 [2] | EC50 [3] | IC50 [4] | IC50 [5] | IC50 [6] |
| --- | --- | --- | --- | --- | --- | --- |
| CCS(=O)(=O)N1CCN(Cc2csc(NC(=O)c3cccn3Cc3ccncc3)n2)CC1 [Compound A96, N-(4-((4-(ethylsulfonyl)piperazin-1-yl)methyl)thiazol-2-yl)-1-(pyridin-4-ylmethyl)-1H-pyrrole-2-carboxamide] | > 25 µM | 15.7 µM | > 25 µM | > 25 µM | > 25 µM | > 25 µM |
| Cc1cc(Cn2cccc2C(=O)Nc2nc(C(C)(C)OC(C)C)cs2)cc(C)n1 [Compound A97] | > 25 µM | 18.9 µM | > 25 µM | > 25 µM | > 25 µM | > 25 µM |
| CCN(C(=O)c1cccn1Cc1ccncc1)c1nc(C)cs1 [Compound A98] | > 25 µM | 19.6 µM | > 25 µM | > 25 µM | > 25 µM | > 25 µM |
| CC(=O)N(C)c1ccc(Cn2cccc2C(=O)Nc2nc(C(C)(C)OC(C)C)cs2)cc1 [Compound A99, N-(4-(2-isopropoxypropan-2-yl)thiazol-2-yl)-1-(4-(N-methylacetamido)benzyl)-1H-pyrrole-2-carboxamide] | > 25 µM | 19.9 µM | > 25 µM | > 25 µM | > 25 µM | > 25 µM |
| CC(C)OC(C)(C)c1csc(NC(=O)c2ccn(Cc3ccncc3)n2)n1 [Compound A100, N-(4-(2-isopropoxypropan-2-yl)thiazol-2-yl)-1-(pyridin-4-ylmethyl)-1H-pyrazole-3-carboxamide] | 24.6 µM | 24.6 µM | > 25 µM | > 25 µM | > 25 µM | > 25 µM |
| CC(=O)N1CCC(CCCn2cccc2C(=O)Nc2nc(C(C)(C)OC(C)C)cs2)CC1 [Compound A101, 1-(3-(1-acetylpiperidin-4-yl)propyl)-N-(4-(2-isopropoxypropan-2-yl)thiazol-2-yl)-1H-pyrrole-2-carboxamide] | > 25 µM | > 25 µM | > 25 µM | > 25 µM | > 25 µM | > 25 µM |
| CC(C)OC(C)(C)c1csc(NC(=O)C2CCCC(=O)N2Cc2ccncc2)n1 (stereo not drawn) [Compound A102, N-(4-(2-isopropoxypropan-2-yl)thiazol-2-yl)-6-oxo-1-(pyridin-4-ylmethyl)piperidine-2-carboxamide] | > 25 µM | > 25 µM | > 25 µM | > 25 µM | > 25 µM | > 25 µM |
| Cc1cc(C(=O)Nc2nc(C(C)(C)OC(C)C)cs2)n(Cc2ccncc2)n1 [Compound A103] | > 25 µM | > 25 µM | > 25 µM | > 25 µM | > 25 µM | > 25 µM |
| CC(C)OC(C)(C)c1csc(NC(=O)c2cncn2Cc2ccncc2)n1 [Compound A104, N-(4-(2-isopropoxypropan-2-yl)thiazol-2-yl)-1-(pyridin-4-ylmethyl)-1H-imidazole-5-carboxamide] | > 25 µM | > 25 µM | > 25 µM | > 25 µM | > 25 µM | > 25 µM |
| CC(C)OC(C)(C)c1csc(NC(=O)c2ccc(C(N)=O)n2Cc2ccncc2)n1 [Compound A105, N-(4-(2-isopropoxypropan-2-yl)thiazol-2-yl)-1-(pyridin-4-ylmethyl)-1H-pyrrole-2,5-dicarboxamide] | > 25 µM | > 25 µM | > 25 µM | > 25 µM | > 25 µM | > 25 µM |
| CC(C)OC(C)(C)c1csc(NC(=O)c2cccc(=O)n2Cc2ccncc2)n1 [Compound A106, N-(4-(2-isopropoxypropan-2-yl)thiazol-2-yl)-6-oxo-1-(pyridin-4-ylmethyl)-1,6-dihydropyridine-2-carboxamide] | > 25 µM | > 25 µM | > 25 µM | > 25 µM | > 25 µM | > 25 µM |
| CC(C)OC(C)(C)c1csc(NC(=O)c2ccc(C(=O)N(C)C)n2Cc2ccncc2)n1 [Compound A107, N2-(4-(2-isopropoxypropan-2-yl)thiazol-2-yl)-N5,N5-dimethyl-1-(pyridin-4-ylmethyl)-1H-pyrrole-2,5-dicarboxamide] | > 25 µM | > 25 µM | > 25 µM | > 25 µM | > 25 µM | > 25 µM |
| CC(C)OC(C)(C)c1csc(NC(=O)c2nccn2Cc2ccncc2)n1 [Compound A108, N-(4-(2-isopropoxypropan-2-yl)thiazol-2-yl)-1-(pyridin-4-ylmethyl)-1H-imidazole-2-carboxamide] | > 25 µM | > 25 µM | > 25 µM | > 25 µM | 7.27 µM | > 25 µM |
| CC(C)OC(C)(C)c1csc(NC(=O)c2cc(C(N)=O)cn2Cc2ccncc2)n1 [Compound A109, N2-(4-(2-isopropoxypropan-2-yl)thiazol-2-yl)-1-(pyridin-4-ylmethyl)-1H-pyrrole-2,4-dicarboxamide] | 19.5 µM | > 25 µM | > 25 µM | > 25 µM | > 25 µM | > 25 µM |
| CC(C)OC(C)(C)c1csc(NC(=O)c2ccc(CO)n2Cc2ccncc2)n1 [Compound A110, 5-(hydroxymethyl)-N-(4-(2-isopropoxypropan-2-yl)thiazol-2-yl)-1-(pyridin-4-ylmethyl)-1H-pyrrole-2-carboxamide] | > 25 µM | > 25 µM | > 25 µM | > 25 µM | > 25 µM | > 25 µM |
| CC(C)OC(C)(C)c1csc(NC(=O)c2cc(C(=O)N(C)C)cn2Cc2ccncc2)n1 [Compound A111, N2-(4-(2-isopropoxypropan-2-yl)thiazol-2-yl)-N4,N4-dimethyl-1-(pyridin-4-ylmethyl)-1H-pyrrole-2,4-dicarboxamide] | > 25 µM | > 25 µM | > 25 µM | > 25 µM | > 25 µM | > 25 µM |
| CC(C)OC(C)(C)c1csc(NC(=O)c2ccnn2Cc2ccncc2)n1 [Compound A112, N-(4-(2-isopropoxypropan-2-yl)thiazol-2-yl)-1-(pyridin-4-ylmethyl)-1H-pyrazole-5-carboxamide] | > 25 µM | > 25 µM | > 25 µM | > 25 µM | > 25 µM | > 25 µM |
| CC(C)OC(C)(C)c1csc(NC(=O)c2cc(CO)cn2Cc2ccncc2)n1 [Compound A113, 4-(hydroxymethyl)-N-(4-(2-isopropoxypropan-2-yl)thiazol-2-yl)-1-(pyridin-4-ylmethyl)-1H-pyrrole-2-carboxamide] | > 25 µM | > 25 µM | > 25 µM | > 25 µM | > 25 µM | > 25 µM |
| CC(=O)Nc1ccc(Cn2cccc2C(=O)Nc2nc(C(C)(C)OC(C)C)cs2)cc1 [Compound A114, 1-(4-acetamidobenzyl)-N-(4-(2-isopropoxypropan-2-yl)thiazol-2-yl)-1H-pyrrole-2-carboxamide] | > 25 µM | > 25 µM | > 25 µM | > 25 µM | > 25 µM | > 25 µM |
| O=C(Nc1nc2nccnc2s1)c1cccn1Cc1ccncc1 [Compound A115] | > 25 µM | > 25 µM | > 25 µM | > 25 µM | > 25 µM | > 25 µM |
| CN(C(=O)c1cccn1Cc1ccncc1)c1nc2ccccc2s1 [Compound A116] | > 25 µM | > 25 µM | > 25 µM | > 25 µM | > 25 µM | > 25 µM |
| CC(C)c1csc(CNC(=O)c2cccn2Cc2ccncc2)n1 [Compound A117, N-((4-isopropylthiazol-2-yl)methyl)-1-(pyridin-4-ylmethyl)-1H-pyrrole-2-carboxamide] | > 25 µM | > 25 µM | > 25 µM | > 25 µM | > 25 µM | > 25 µM |
| Cc1csc(N(C)C(=O)c2cccn2Cc2ccncc2)n1 [Compound A118] | > 25 µM | > 25 µM | > 25 µM | > 25 µM | > 25 µM | > 25 µM |
